Tested on: Liriomyza trifolii
Assay: Liriomyza test
Type: in vivo
Details: 1000 ppm, bean plants (Phaseolus vulgaris) dipped
Description: Liriomyza Test • Solvent: 3 parts by weight of dimethylformamide • Emulsifier: 1 part by weight of alkylaryl polyglycol ether To produce a suitable preparation of active compound, 1 part by weight of active compound is mixed with the stated amounts of solvent and emulsifier, and the concentrate is diluted with emulsifier-containing water to the desired concentration. Bean plants (Phaseolus vulgaris) which are infested by eggs and development stages of […] (Liriomyza trifolii) are dipped into a preparation of active compound of the desired concentration. After the desired period of time, the effect in % is determined. 100% means that all […] have been killed; 0% means that none of the […] have been killed.

Compound: COC(=O)C1CC(c2c(F)cccc2F)=NC1c1ccc(-c2ccc(OC(F)(F)F)cc2)cc1 (stereo not shown) [drawing 145]
- Kill rate in % after 7 days: 100%

From patent US6995185B2, “Δ1-pyrrolines used as pesticides” (Bayer Cropscience AG, priority 2000, dated 2006)
